Laboratory results taken from patent US6660728B2, “Thienyl substituted acylguanidines as inhibitors of bone resorption and vitronectin receptor antagonists” (Aventis Pharma Deutschland GmbH, priority 1998, dated 2003).
pIC50: −log10 of the molar value.

Legend:
[1] = target: T1, Human Vitronectin Receptor (VnR) αvβ3 (Homo sapiens, UniProt P05106+P06756); assay: K/VnR test: inhibition of the binding of kistrin to human vitronectin receptor (ELISA)
T1 construct: Human vitronectin receptor was isolated from human placenta using the method of Pytela et al; from tissue; host or cells: human placenta
T1 sequence (P06756 31-889 limits assumed): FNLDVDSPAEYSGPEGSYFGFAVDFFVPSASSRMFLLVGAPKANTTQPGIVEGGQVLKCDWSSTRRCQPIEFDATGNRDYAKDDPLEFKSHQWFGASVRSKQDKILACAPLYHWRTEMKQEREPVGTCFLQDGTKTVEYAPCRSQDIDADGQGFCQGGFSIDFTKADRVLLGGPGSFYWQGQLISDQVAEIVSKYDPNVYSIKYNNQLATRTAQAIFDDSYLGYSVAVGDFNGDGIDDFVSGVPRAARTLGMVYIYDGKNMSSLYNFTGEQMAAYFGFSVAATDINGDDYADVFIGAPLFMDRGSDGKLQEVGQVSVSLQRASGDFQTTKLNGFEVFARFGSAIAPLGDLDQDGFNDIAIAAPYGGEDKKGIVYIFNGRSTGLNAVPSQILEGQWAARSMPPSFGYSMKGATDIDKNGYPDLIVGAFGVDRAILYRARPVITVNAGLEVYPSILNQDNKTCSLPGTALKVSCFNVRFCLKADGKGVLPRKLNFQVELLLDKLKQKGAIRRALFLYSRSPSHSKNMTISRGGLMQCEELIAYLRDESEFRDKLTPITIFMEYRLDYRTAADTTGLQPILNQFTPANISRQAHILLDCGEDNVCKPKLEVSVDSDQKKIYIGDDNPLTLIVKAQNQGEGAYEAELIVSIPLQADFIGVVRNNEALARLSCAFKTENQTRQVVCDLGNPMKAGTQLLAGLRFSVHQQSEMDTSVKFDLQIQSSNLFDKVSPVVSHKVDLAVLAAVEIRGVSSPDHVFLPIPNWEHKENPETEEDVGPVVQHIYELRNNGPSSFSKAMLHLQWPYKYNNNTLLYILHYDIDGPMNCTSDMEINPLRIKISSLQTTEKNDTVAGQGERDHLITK
T1 sequence (P06756 891-1048 limits assumed): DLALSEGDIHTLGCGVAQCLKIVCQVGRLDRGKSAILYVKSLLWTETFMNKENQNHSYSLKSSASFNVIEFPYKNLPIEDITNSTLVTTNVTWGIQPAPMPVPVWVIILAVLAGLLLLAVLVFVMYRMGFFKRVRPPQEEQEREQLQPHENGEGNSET
T1 sequence (P05106 27-788): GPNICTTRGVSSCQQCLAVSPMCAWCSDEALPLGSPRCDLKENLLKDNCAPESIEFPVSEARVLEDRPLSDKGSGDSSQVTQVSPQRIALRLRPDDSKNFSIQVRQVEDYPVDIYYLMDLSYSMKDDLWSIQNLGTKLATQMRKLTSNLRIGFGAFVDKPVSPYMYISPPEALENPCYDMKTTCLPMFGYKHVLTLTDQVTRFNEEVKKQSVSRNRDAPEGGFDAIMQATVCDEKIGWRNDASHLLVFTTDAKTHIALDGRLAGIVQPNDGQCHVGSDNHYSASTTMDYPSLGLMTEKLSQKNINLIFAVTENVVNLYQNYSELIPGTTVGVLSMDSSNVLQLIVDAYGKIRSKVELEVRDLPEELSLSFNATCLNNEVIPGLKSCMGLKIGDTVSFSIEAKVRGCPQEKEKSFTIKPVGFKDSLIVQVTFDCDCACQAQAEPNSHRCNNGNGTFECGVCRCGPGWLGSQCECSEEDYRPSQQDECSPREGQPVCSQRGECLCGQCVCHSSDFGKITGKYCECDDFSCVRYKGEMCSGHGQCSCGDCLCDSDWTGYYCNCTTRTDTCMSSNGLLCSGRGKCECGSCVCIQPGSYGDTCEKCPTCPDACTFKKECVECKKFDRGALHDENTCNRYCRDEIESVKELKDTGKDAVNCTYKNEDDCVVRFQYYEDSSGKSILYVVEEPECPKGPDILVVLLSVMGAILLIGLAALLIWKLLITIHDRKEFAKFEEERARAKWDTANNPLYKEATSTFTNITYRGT

Q: Which melting point does the source give for CC(C)OC(=O)[C@H](CNC(=O)c1ccc(CCC(=O)NC2=NCCCN2)s1)NC(=O)OCC12CC3CC(CC(C3)C1)C2 here?
A: Its melting point is 160 °C (dec.).

Q: For CC(C)COC(=O)[C@H](CNC(=O)c1ccc(CCC(=O)NC2=NCCCN2)s1)NC(=O)OCC12CC3CC(CC(C3)C1)C2, which melting point is on record?
A: Its melting point is 210 °C (dec.).

Q: For O=C(O)C[C@H](NC(=O)c1ccc(CCC(=O)NC2=NCCCN2)s1)c1ccc2c(c1)OCO2, which melting point is on record?
A: Its melting point is 130 °C.

Q: With O=C(/C=C/c1ccc(C(=O)NC[C@H](NC(=O)OCc2ccccc2)C(=O)O)s1)NC1=NCCCN1 [Example 14, (2S)-2-Benzyloxycarbonylamino-3-((5-(2-(1,4,5,6-tetrahydropyrimidin-2-ylcarbamoyl)-vinyl)-thiophene-2-carbonyl)-amino)-propionic Acid] as the compound, how does the pIC50 [1] read?
A: The pIC50 was < 5.00.
